Reference: patent EP0517126A1, “Use of diacetyl-splenopentin in chemotherapy and radiation therapy” (WOGEPHARM GmbH, priority 1991, dated 1992)
No end group written: not given here.

Columns and labels:
Assay type in all cases: in vivo, BALB/c-Mäuse
Knochenmarkstammzellen [1] = test: Agar colony test (CFU test) of bone marrow stem cells after dexamethasone treatment, followed by DA-SP5; details: after Dexamethason 150 mg/kg i.p. days +1 to +5, DA-SP5 10 µg i.p. three times weekly, normal value 121 ± 23
Text: (§1) Es wurde gefunden, daß als Folge einer Therapie mit Zytostatika bzw. durch eine Bestrahlungstherapie sich im Blut der entsprechend behandelten Patienten die Zahl immunologischer Abwehrzellen vermindert. Dies resultiert, weil durch die o. g. Therapie auch die Stammzellen des Knochenmarks (aus diesen entstehen die immunologischen Abwehrzellen) zytotoxisch geschädigt werden. Die Substanz DA-SP5 erhöht die Nachbildung von immunologischen Abwehrzellen aus Stammzellen des Knochenmarks (W. DIEZEL et al. (1989): DD-PS 268160 Al). Es hat sich gezeigt, daß DA-SP5 direkt die Proliferation unreifer Stammzellen des Knochenmarks beschleunigen kann bzw. die Wirkung des Kolonien-stimulierrenden Faktors GM-CSF synergistisch erhöht. Überraschenderweise wurde jetzt festgestellt, daß als Folge dieser Wirkung die zytotoxische Schädigung von Knochenmarkstammzellen (und damit die verminderte Entstehung immunologischer Abwehrzellen) durch Chemotherapeutika bzw. infolge Bestrahlung der Zellen, kompensiert werden kann. Die erfindungsgemäße Wirkung wurde dadurch festgestellt, indem BALB/c-Mäuse hochdosiert mit zytotoxischen (Zellproliferations-hemmenden) Therapeutika systemisch behandelt wurden. Anschließend erfolgte eine Therapie mit DA-SP5 bzw. es wurde lediglich 0,9%ige NaCl-Lösung (Kontrallgruppe) appliziert. Während dieser Therapie wurde untersucht, ob die DE-SP5-behandelten Tiere zeitlich eher befähigt wurden "Knochenmarkstammzell-Kolonien" entsprechend der Norm zu bilden. Eine diesbezüglich schnellere Bildung korreliert mit einer schnelleren Entstehung entsprechender immunologischer Abwehrzellen im Blut. In einer weiteren Versuchsserie wurden BALB/c-Mäuse subletal bestrahlt, und anschließend ebenfalls mit oder ohne DA-SP5 behandelt. Auch bei diesen Tieren wurde untersucht, ob sie zeitlich eher befähigt waren, "Knochenmarkzell-Kolonien" entsprechend der Norm zu bilden. Das erfindungsgemäß verwendete Mittel wurde in Mengen von 0,05mg bis 1,0 mg pro kg Körpergewicht verabreicht. […]

Knochenmarkstammzellen [2] = test: Agar colony test (CFU test) of bone marrow stem cells after methotrexate treatment, followed by DA-SP5; details: after Methotrexat 175 mg/kg days +1 to +5, DA-SP5 10 µg i.p. three times weekly, normal value 121 ± 23
Text: as §1

Knochenmarkstammzellen [3] = test: Agar colony test (CFU test) of bone marrow stem cells after sublethal X-ray irradiation, followed by DA-SP5; details: after single X-ray irradiation, DA-SP5 10 µg i.p. three times weekly, normal value 121 ± 23
Text: as §1

Ac-RK(Ac)EVY [DA-SP5, (N^α-acetyl-L-arginyl)-(N^ε-acetyl-L-lysyl)-L-glutamyl-L-valyl-L-tyrosin]
Kolonien pro Femur (x̄ ± s) (Knochenmarkstammzellen [1]; Tag Nr. 10 of DA-SP5 therapy): 10 ± 8 | Kolonien pro Femur (x̄ ± s) (Knochenmarkstammzellen [1]; Tag Nr. 20 of DA-SP5 therapy): 55 ± 21 | Kolonien pro Femur (x̄ ± s) (Knochenmarkstammzellen [1]; Tag Nr. 40 of DA-SP5 therapy): 126 ± 18 | Kolonien pro Femur (x̄ ± s) (Knochenmarkstammzellen [2]; Tag Nr. 10 of DA-SP5 therapy): 9 ± 6 | Kolonien pro Femur (x̄ ± s) (Knochenmarkstammzellen [2]; Tag Nr. 20 of DA-SP5 therapy): 53 ± 24 | Kolonien pro Femur (x̄ ± s) (Knochenmarkstammzellen [2]; Tag Nr. 40 of DA-SP5 therapy): 110 ± 20 | Kolonien pro Femur (x̄ ± s) (Knochenmarkstammzellen [3]; Tag Nr.10 of DA-SP5 therapy): 8 ± 6 | Kolonien pro Femur (x̄ ± s) (Knochenmarkstammzellen [3]; Tag Nr.20 of DA-SP5 therapy): 116 ± 10 | Kolonien pro Femur (x̄ ± s) (Knochenmarkstammzellen [3]; Tag Nr.40 of DA-SP5 therapy): 126 ± 12
